Results: patent US20250388605A1, “HETEROBIFUNCTIONAL COMPOUNDS AND METHODS OF TREATING DISEASE” (Halda Therapeutics OpCo, Inc., priority 2022, published 2025)

System: T-Rex 293 cell line SC3 cells lacking increased expression of androgen receptor protein
Experiment: Cellular growth inhibition, T-Rex 293 SC3 cells without doxycycline (no increased androgen receptor expression), CellTiter-Glo
Format: cell-based
Settings: T-Rex 293 SC3 cells not exposed to doxycycline (no increased androgen receptor expression), 72 hours
Procedure, shortened: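 Doxycycline (10 ng/mL) was either included or omitted to toggle wild-type androgen receptor expression in SC3 cells, a T-Rex 293 clone, grown in stripped-serum, phenol red-free medium. After 72 hours with compound, viable cells were quantified by CellTiter-Glo 2.0.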

| SMILES | GI50 [nM] |
| --- | --- |
| CCS(=O)(=O)Cc1ccc(Oc2cccc(OCCOC3CCN(c4ncc(C(=O)N[C@H]5C(C)(C)[C@H](Oc6ccc(C#N)c(Cl)c6)C5(C)C)cn4)CC3)c2)c(-c2cn(C)c(=O)c3[nH]ccc23)c1 [Compound I-54, N-((1r, 3r)-3-(3-chloro-4-cyanophenoxy)-2,2,4,4-tetramethylcyclobutyl)-2-(4-(2-(3-(4-((ethylsulfonyl)methyl)-2-(6-methyl-7-oxo-6,7-dihydro-1H-pyrrolo[2,3-c]pyridin-4-yl)phenoxy)phenoxy)ethoxy)piperidin-1-yl)pyrimidine-5-carboxamide] | < 500 |
| CCS(=O)(=O)Nc1ccc(Oc2cccc(NCCOC3CCN(c4ncc(C(=O)N[C@H]5C(C)(C)[C@H](Oc6ccc(C#N)c(Cl)c6)C5(C)C)cn4)CC3)c2)c(-c2cn(C)c(=O)c3[nH]ccc23)c1 [Compound I-84] | < 500 |
| CCS(=O)(=O)Nc1ccc(Oc2cccc(OCCOC3CCN(c4ncc(C(=O)N[C@H]5C(C)(C)[C@H](Oc6ccc(C#N)c(Cl)c6)C5(C)C)cn4)CC3)n2)c(-c2cn(C)c(=O)c3[nH]ccc23)c1 [Compound I-47, N-((1r, 3r)-3-(3-chloro-4-cyanophenoxy)-2,2,4,4-tetra-methylcyclobutyl)-2-(4-(2-((6-(4-(ethylsulfonamido)-2-(6-methyl-7-oxo-6,7-dihydro-1H-pyrrolo[2,3-c]pyridin-4-yl)phenoxy)pyridin-2-yl)oxy)ethoxy)piperidin-1-yl)pyrimidine-5-carboxamide] | < 500 |
| Cn1cc(-c2cc(C(C)(C)O)ccc2Oc2cccc(OCCC3CCN(c4ncc(C(=O)N[C@H]5C(C)(C)[C@H](Oc6ccc(C#N)c(Cl)c6)C5(C)C)cn4)CC3)c2F)c2cc[nH]c2c1=O [Compound I-142] | 1500 to 3000 |
| CCS(=O)(=O)Nc1ccc(Oc2cccc(N3CC(N(C)C4CN(c5ncc(C(=O)N[C@H]6C(C)(C)[C@H](Oc7ccc(C#N)c(Cl)c7)C6(C)C)cn5)C4)C3)c2)c(-c2cn(C)c(=O)c3[nH]ccc23)c1 [Compound I-120] | > 3000 |
| CCS(=O)(=O)c1ccc(Oc2cccc(OCCOC3CCN(c4ccc(C(=O)N[C@H]5C(C)(C)[C@H](Oc6ccc(C#N)c(Cl)c6)C5(C)C)cn4)CC3)c2F)c(-c2cn(C)c(=O)c3[nH]ccc23)c1 [Compound I-185] | < 500 |
| CN(CCCc1ccc(Oc2ccc(C(C)(C)O)cc2-c2cn(C)c(=O)c3[nH]ccc23)cc1)c1ncc(C(=O)N[C@H]2C(C)(C)[C@H](Oc3ccc(C#N)c(Cl)c3)C2(C)C)cn1 [Compound I-211] | < 500 |
| CCS(=O)(=O)Nc1ccc(Oc2cccc(N3CC(CC4CN(c5ncc(C(=O)N[C@H]6C(C)(C)[C@H](Oc7ccc(C#N)c(Cl)c7)C6(C)C)cn5)C4)C3)c2)c(-c2cn(C)c(=O)c3[nH]ccc23)c1 [Compound I-158] | > 3000 |
| Cn1cc(-c2ccccc2Oc2cccc(N3CC(N4CCN(c5ncc(C(=O)N[C@H]6C(C)(C)[C@H](Oc7ccc(C#N)c(Cl)c7)C6(C)C)cn5)CC4)C3)c2F)c2cc[nH]c2c1=O [Compound I-94] | > 3000 |
| CCS(=O)(=O)c1ccc(OC(CCCCN2CCN(c3ncc(C(=O)NC4C(C)(C)C(Oc5ccc(C#N)c(Cl)c5)C4(C)C)cn3)CC2)C2CC2)c(-c2cn(C)c(=O)c3[nH]ccc23)c1 (stereo not shown) [Compound I-223, N-[3-(3-chloro-4-cyano-phenoxy)-2,2,4,4-tetramethyl-cyclobutyl]-2-[4-[5-cyclopropyl-5-[4-ethylsulfonyl-2-(6-methyl-7-oxo-1H-pyrrolo[2,3-c]pyridin-4-yl)phenoxy]pentyl]piperazin-1-yl]pyrimidine-5-carboxamide] | < 500 |
| CCS(=O)(=O)Nc1ccc(Oc2cccc(OCCOCCOC3CCN(c4ncc(C(=O)N[C@H]5C(C)(C)[C@H](Oc6ccc(C#N)c(Cl)c6)C5(C)C)cn4)CC3)c2)c(-c2cn(C)c(=O)c3[nH]ccc23)c1 [Compound I-13] | < 500 |
| CCS(=O)(=O)c1ccc(OCC(CCCN2CCN(c3ncc(C(=O)NC4C(C)(C)C(Oc5ccc(C#N)c(Cl)c5)C4(C)C)cn3)CC2)C2CC2)c(-c2cn(C)c(=O)c3[nH]ccc23)c1 (stereo not shown) [Compound I-231, N-[3-(3-chloro-4-cyano-phenoxy)-2,2,4,4-tetramethyl-cyclobutyl]-2-[4-[4-cyclopropyl-5-[4-ethylsulfonyl-2-(6-methyl-7-oxo-1H-pyrrolo[2,3-c]pyridin-4-yl)phenoxy]pentyl]piperazin-1-yl]pyrimidine-5-carboxamide] | < 500 |
| Cn1cc(-c2cc(C(C)(C)O)ccc2Oc2cccc(N3CC4(CN(c5ncc(C(=O)N[C@H]6C(C)(C)[C@H](Oc7ccc(C#N)c(Cl)c7)C6(C)C)cn5)CCO4)C3)c2F)c2cc[nH]c2c1=O [Compound I-216] | < 500 |
| Cn1cc(-c2cc(C(C)(C)O)ccc2Oc2ccc(N3CC4(C3)CN(c3ncc(C(=O)N[C@H]5C(C)(C)[C@H](Oc6ccc(C#N)c(Cl)c6)C5(C)C)cn3)CCO4)cc2)c2cc[nH]c2c1=O [Compound I-212] | 500 to 1500 |
| Cn1cc(-c2cc(C(C)(C)O)ccc2Oc2cccc(CCOC3CCN(c4ncc(C(=O)N[C@H]5C(C)(C)[C@H](Oc6ccc(C#N)c(Cl)c6)C5(C)C)cn4)CC3)c2)c2cc[nH]c2c1=O [Compound I-193] | < 500 |
| Cn1cc(-c2cc(C(C)(C)O)ccc2Oc2cccc(CCCN3CCN(c4ncc(C(=O)N[C@H]5C(C)(C)[C@H](Oc6ccc(C#N)c(Cl)c6)C5(C)C)cn4)CC3)c2F)c2cc[nH]c2c1=O [Compound I-143] | < 500 |

| SMILES | GI50 [nM] |
| --- | --- |
| Cn1cc(-c2cc(C(C)(C)O)ccc2Oc2ccc(CCOC3CCN(c4ncc(C(=O)N[C@H]5C(C)(C)[C@H](Oc6ccc(C#N)c(Cl)c6)C5(C)C)cn4)CC3)cc2)c2cc[nH]c2c1=O [Compound I-194] | 1500 to 3000 |
| CCS(=O)(=O)Nc1ccc(Oc2cccc(OCCOC3CCN(c4ncc(C(=O)N[C@H]5C(C)(C)[C@H](Oc6ccc(C#N)c(Cl)c6)C5(C)C)cn4)CC3)c2)c(-c2cn(C)c(=O)c3c2ccn3C)c1 [Compound I-121] | > 3000 |
| CCS(=O)(=O)Nc1ccc(Oc2cccc(OCCOCCOCCOCCOCCOC3CCN(c4ncc(C(=O)N[C@H]5C(C)(C)[C@H](Oc6ccc(C#N)c(Cl)c6)C5(C)C)cn4)CC3)c2)c(-c2cn(C)c(=O)c3[nH]ccc23)c1 [Compound I-8] | < 500 |
| CCS(=O)(=O)Nc1ccc(Oc2cccc(N3CC(N4CCN(c5ncc(C(=O)N[C@H]6C(C)(C)[C@H](Oc7ccc(C#N)c(Cl)c7)C6(C)C)cn5)CC4)C3)c2)c(-c2cn(C)c(=O)c3[nH]ccc23)c1 [Compound I-75] | < 500 |
| Cn1cc(-c2cc(C(C)(C)O)ccc2Oc2cccc(OCCN3CCN(c4ncc(C(=O)N[C@H]5C(C)(C)[C@H](Oc6ccc(C#N)c(Cl)c6)C5(C)C)cn4)CC3)c2F)c2cc[nH]c2c1=O [Compound I-99] | < 500 |
| Cn1cc(-c2cc(C(C)(C)O)ccc2Oc2cccc(CCCN3CCN(c4ncc(C(=O)N[C@H]5C(C)(C)[C@H](Oc6ccc(C#N)c(Cl)c6)C5(C)C)cn4)CC3)c2)c2cc[nH]c2c1=O [Compound I-110] | < 500 |
| CCS(=O)(=O)N(C)c1ccc(Oc2cccc(N3CCN(C4CN(c5ncc(C(=O)N[C@H]6C(C)(C)[C@H](Oc7ccc(C#N)c(Cl)c7)C6(C)C)cn5)C4)CC3)c2)c(-c2cn(C)c(=O)c3[nH]ccc23)c1 [Compound I-118] | > 3000 |
| CC(C)N(CC1CCN(c2ncc(C(=O)N[C@H]3C(C)(C)[C@H](Oc4ccc(C#N)c(Cl)c4)C3(C)C)cn2)CC1)[C@H]1C[C@H](Oc2cccc(Oc3ccc(C(C)(C)O)cc3-c3cn(C)c(=O)c4[nH]ccc34)c2F)C1 [Compound I-214] | < 500 |
| Cn1cc(-c2cc(N)ccc2Oc2cccc(OCCN3CCN(c4ncc(C(=O)N[C@H]5C(C)(C)[C@H](Oc6ccc(C#N)c(Cl)c6)C5(C)C)cn4)CC3)c2F)c2cc[nH]c2c1=O [Compound I-100] | > 3000 |
| Cn1cc(-c2ccccc2Oc2cccc(OCCN3CCN(c4ncc(C(=O)N[C@H]5C(C)(C)[C@H](Oc6ccc(C#N)c(Cl)c6)C5(C)C)cn4)CC3)c2)c2cc[nH]c2c1=O [Compound I-98] | 500 to 1500 |
| CN(c1ccc(Oc2cccc(N3CC(N4CCN(c5ncc(C(=O)N[C@H]6C(C)(C)[C@H](Oc7ccc(C#N)c(Cl)c7)C6(C)C)cn5)CC4)C3)c2)c(-c2cn(C)c(=O)c3[nH]ccc23)c1)S(=O)(=O)C1CC1 [Compound I-88, N-((1r, 3r)-3-(3-chloro-4-cyanophenoxy)-2,2,4,4-tetramethylcyclobutyl)-2-(4-(1-(3-(2-(6-methyl-7-oxo-6,7-dihydro-1H-pyrrolo[2,3-c]pyridin-4-yl)-4-(N-methylcyclopropanesulfonamido)phenoxy)phenyl)azetidin-3-yl)piperazin-1-yl)pyrimidine-5-carboxamide] | > 3000 |
| Cn1cc(-c2cc(C(C)(C)O)ccc2Oc2cccc(OCCC3CCN(c4ncc(C(=O)N[C@H]5C(C)(C)[C@H](Oc6ccc(C#N)c(Cl)c6)C5(C)C)cn4)CC3)c2)c2cc[nH]c2c1=O [Compound I-156] | > 3000 |
| Cn1cc(-c2cc(N)ccc2Oc2cccc(OCCOC3CCN(c4ncc(C(=O)N[C@H]5C(C)(C)[C@H](Oc6ccc(C#N)c(Cl)c6)C5(C)C)cn4)CC3)c2)c2cc[nH]c2c1=O [Compound I-62, 2-(4-(2-(3-(4-amino-2-(6-methyl-7-oxo-6,7-dihydro-1H-pyrrolo[2,3-c]pyridin-4-yl)phenoxy)phenoxy)ethoxy)piperidin-1-yl)-N-((1r, 3r)-3-(3-chloro-4-cyanophenoxy)-2,2,4,4-tetramethylcyclobutyl)pyrimidine-5-carboxamide] | > 3000 |
| Cn1cc(-c2ccccc2Oc2cccc(N3CC(N4CCN(c5ncc(C(=O)N[C@H]6C(C)(C)[C@H](Oc7ccc(C#N)c(Cl)c7)C6(C)C)cn5)CC4)C3)c2)c2cc[nH]c2c1=O [Compound I-90, N-((1r, 3r)-3-(3-chloro-4-cyanophenoxy)-2,2,4,4-tetramethylcyclobutyl)-2-(4-(1-(3-(2-(6-methyl-7-oxo-6,7-dihydro-1H-pyrrolo[2,3-c]pyridin-4-yl)phenoxy)phenyl)azetidin-3-yl)piperazin-1-yl)pyrimidine-5-carboxamide] | > 3000 |
| CCS(=O)(=O)c1ccc(Oc2cccc(OCCN3CCN(c4ncc5c(n4)CN([C@H]4C(C)(C)[C@H](Oc6ccc(C#N)c(Cl)c6)C4(C)C)C5=O)CC3)c2F)c(-c2cn(C)c(=O)c3[nH]ccc23)c1 [Compound I-217] | < 500 |
